Experimental data taken from article PMC5261566, “The AMPK Activator A769662 Blocks Voltage-Gated Sodium Channels: Discovery of a Novel Pharmacophore with Potential Utility for Analgesic Development” (PLoS ONE, 2017).

Molecular target: T1, Nav1.7 (hNav1.7) (Homo sapiens, UniProt Q15858, F1748A/Y1755A)
T1 construct: gene SCN9A; F1737A/Y1744A mutant hNav1.7 transiently expressed in HEK293 cells
Assay: whole-cell patch clamp, % reduction of peak current at […]
Assay type: cell-based
Details: read-out: % block at 200 μM

T1 sequence (Q15858 whole entry F1748A/Y1755A): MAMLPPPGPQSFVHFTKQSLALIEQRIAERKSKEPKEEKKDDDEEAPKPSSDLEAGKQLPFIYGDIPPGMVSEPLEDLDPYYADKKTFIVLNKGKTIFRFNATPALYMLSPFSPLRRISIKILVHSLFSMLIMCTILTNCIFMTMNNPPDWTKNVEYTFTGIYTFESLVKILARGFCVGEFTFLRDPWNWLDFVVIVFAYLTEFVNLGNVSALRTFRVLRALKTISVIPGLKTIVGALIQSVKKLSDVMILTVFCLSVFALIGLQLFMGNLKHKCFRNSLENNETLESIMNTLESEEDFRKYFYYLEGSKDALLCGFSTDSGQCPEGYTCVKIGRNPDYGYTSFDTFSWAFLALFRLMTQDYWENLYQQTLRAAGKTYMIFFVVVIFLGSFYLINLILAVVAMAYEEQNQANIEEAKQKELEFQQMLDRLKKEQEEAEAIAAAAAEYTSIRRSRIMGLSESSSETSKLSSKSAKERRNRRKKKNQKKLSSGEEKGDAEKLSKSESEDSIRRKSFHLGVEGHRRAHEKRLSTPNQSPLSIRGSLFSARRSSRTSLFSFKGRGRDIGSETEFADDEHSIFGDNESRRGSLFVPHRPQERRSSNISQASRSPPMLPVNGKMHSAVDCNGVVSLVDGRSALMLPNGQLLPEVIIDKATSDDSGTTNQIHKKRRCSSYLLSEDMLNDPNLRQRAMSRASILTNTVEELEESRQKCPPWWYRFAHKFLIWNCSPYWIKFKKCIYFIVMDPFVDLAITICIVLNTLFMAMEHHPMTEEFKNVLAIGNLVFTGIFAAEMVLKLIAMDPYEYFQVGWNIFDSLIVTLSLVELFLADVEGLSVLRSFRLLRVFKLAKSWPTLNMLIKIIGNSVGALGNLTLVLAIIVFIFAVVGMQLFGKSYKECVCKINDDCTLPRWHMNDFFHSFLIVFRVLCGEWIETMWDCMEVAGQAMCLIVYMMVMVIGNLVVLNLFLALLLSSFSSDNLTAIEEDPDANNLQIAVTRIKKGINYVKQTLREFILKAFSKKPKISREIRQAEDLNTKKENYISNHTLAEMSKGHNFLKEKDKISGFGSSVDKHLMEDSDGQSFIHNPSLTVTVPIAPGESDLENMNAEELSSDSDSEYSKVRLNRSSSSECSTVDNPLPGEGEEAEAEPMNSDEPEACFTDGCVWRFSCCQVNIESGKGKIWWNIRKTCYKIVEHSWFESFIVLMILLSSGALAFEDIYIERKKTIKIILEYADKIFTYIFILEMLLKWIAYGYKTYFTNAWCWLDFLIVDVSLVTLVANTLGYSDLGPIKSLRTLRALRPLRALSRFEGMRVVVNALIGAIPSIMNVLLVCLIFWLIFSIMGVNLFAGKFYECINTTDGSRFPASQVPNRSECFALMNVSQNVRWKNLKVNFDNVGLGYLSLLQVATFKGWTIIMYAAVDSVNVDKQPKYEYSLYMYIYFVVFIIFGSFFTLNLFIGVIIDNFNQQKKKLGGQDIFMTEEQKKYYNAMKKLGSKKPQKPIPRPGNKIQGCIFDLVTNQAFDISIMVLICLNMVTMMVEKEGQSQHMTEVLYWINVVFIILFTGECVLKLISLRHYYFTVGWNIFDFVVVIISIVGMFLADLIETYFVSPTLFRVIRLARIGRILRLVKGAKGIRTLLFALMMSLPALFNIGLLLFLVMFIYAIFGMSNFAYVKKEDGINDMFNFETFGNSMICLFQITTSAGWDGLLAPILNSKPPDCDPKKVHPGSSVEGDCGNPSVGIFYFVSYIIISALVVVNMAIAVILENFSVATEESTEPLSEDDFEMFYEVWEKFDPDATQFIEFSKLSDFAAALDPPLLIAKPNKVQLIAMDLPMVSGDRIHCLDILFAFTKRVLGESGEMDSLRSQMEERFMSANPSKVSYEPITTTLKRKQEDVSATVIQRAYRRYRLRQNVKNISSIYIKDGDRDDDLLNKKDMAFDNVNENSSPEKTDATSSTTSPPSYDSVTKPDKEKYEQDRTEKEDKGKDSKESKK

N#Cc1c(O)c2c(-c3ccc(-c4ccccc4O)cc3)csc2[nH]c1=O [A769662]
inhibition at 200 µM: 38%
